Source: ChEMBL document CHEMBL1221362, “Dialkylaminoalkyl derivatives of bicyclic compounds with antiplasmodial activity” (Bioorg Med Chem, 2010)
pIC50: −log10 of the molar value.

Legend:
[1] = system: L6; test: Cytotoxicity against rat L6 cells; type: cell-based
[2] = system: Plasmodium falciparum; test: Antiplasmodial activity against Plasmodium falciparum K1 infected in human blood by [3H]hypoxanthine incorporation assay; type: functional, organism-based
[3] = Selectivity index, ratio of IC50 for rat L6 cells to IC50 for Plasmodium falciparum K1; type: toxicity, cell-based; conditions: read-out: Ratio IC50
[4] = system: Plasmodium berghei; test: Antimalarial activity against Plasmodium berghei ANKA infected in albino mice (Mus musculus) assessed as reduction in parasitemia at 30 mg/kg, intraperitoneal for 4 days; type: functional; design: scale not given: the % may be the effect or the level left
[5] = system: Mus musculus; test: Toxicity in albino mouse assessed as mean survival days at 30 mg/kg, ip for 4 days; type: organism-based; design: dose 30 mg/kg, route intraperitoneal; conditions: in vivo, 96 h
[6] = system: Mus musculus; test: Toxicity in albino mouse assessed as mean survival days at 50 mg/kg, ip for 4 days; type: organism-based; design: dose 50 mg/kg, route intraperitoneal; conditions: in vivo, 96 h
[7] = system: Plasmodium berghei; test: Antimalarial activity against Plasmodium berghei ANKA infected in albino mice (Mus musculus) assessed as reduction in parasitemia at 50 mg/kg, intraperitoneal for 4 days; type: functional; design: scale not given: the % may be the effect or the level left
[8] = system: Mus musculus; test: Toxicity in albino mouse assessed as mean survival days at 10 mg/kg, ip for 4 days; type: organism-based; design: dose 10 mg/kg, route intraperitoneal; conditions: in vivo, 96 h

| SMILES | pIC50 [1] | pIC50 [2] | selectivity ratio [3] | Activity [4] | MSD [5] | MSD [6] | Activity [7] | MSD [8] |
| --- | --- | --- | --- | --- | --- | --- | --- | --- |
| O=C(CN1CCCC1)NC1CC2(N3CCCCC3)CC(c3ccccc3)C1C(c1ccccc1)C2 (stereo unspecified) | 4.68 | 6.96 | 191 |  |  |  |  |  |
| CN(C)C12CCN(CCN3CCCC3)C(C(c3ccccc3)C1)C(c1ccccc1)C2 (stereo unspecified) |  |  | 136 |  |  |  |  |  |
| c1ccc(C2CC3(N4CCCC4)CCN(CCN4CCCC4)C2C(c2ccccc2)C3)cc1 (stereo unspecified) |  |  | 116 |  |  |  |  |  |
| CN(C)C12CCN(C(=O)CCN3CCCCC3)C(C(c3ccccc3)C1)C(c1ccccc1)C2 (racemic) | 3.89 | 5.97 | 120 |  |  |  |  |  |
| O=C(CCN1CCCCC1)N1CCC2(N3CCCC3)CC(c3ccccc3)C1C(c1ccccc1)C2 (racemic) | 3.97 | 6.44 | 300 | 27.2% | 6.7 days |  |  |  |
| O=C(CCN1CCCCC1)N1CCC2(N3CCCCC3)CC(c3ccccc3)C1C(c1ccccc1)C2 (racemic) | 4.19 | 6.72 | 336 |  |  | 6 days | 36.5% |  |
| CCN1CCN(CCN2CCC3(N(C)C)CC(c4ccccc4)C2C(c2ccccc2)C3)CC1 (racemic) | 4.24 | 6.47 | 170 |  |  |  |  |  |
| CCN1CCN(CCN2CCC3(N4CCCC4)CC(c4ccccc4)C2C(c2ccccc2)C3)CC1 (racemic) | 4.27 | 6.74 | 298 | 8.9% | 7 days |  |  |  |
| CCN1CCN(CCN2CCC3(N4CCCCC4)CC(c4ccccc4)C2C(c2ccccc2)C3)CC1 (racemic) | 4.17 | 6.85 | 482 | 0% | 7 days |  |  |  |
| CN(C)C12CCN(CCCN3CCCCC3)C(C(c3ccccc3)C1)C(c1ccccc1)C2 (racemic) | 4.23 | 6.44 | 162 |  |  |  |  |  |
| c1ccc(C2CC3(N4CCCC4)CCN(CCCN4CCCCC4)C2C(c2ccccc2)C3)cc1 (racemic) | 4.54 | 7.00 | 287 | 31% | 7 days |  |  |  |
| c1ccc(C2CC3(N4CCCCC4)CCN(CCCN4CCCCC4)C2C(c2ccccc2)C3)cc1 (racemic) | 3.86 | 6.92 | 1150 |  |  | 8 days | 30.4% |  |
| C[C@@H]1CC[C@H]2[C@@H](C)C(=O)O[C@@H]3O[C@@]4(C)CC[C@@H]1[C@]32OO4 [ARTEMISININ] |  | 8.19 |  |  |  |  |  |  |
| CCN(CC)CCCC(C)Nc1ccnc2cc(Cl)ccc12 (stereo unspecified) [CHLOROQUINE] |  |  |  |  |  |  |  | 20 days |
